pIC50: −log10 of the molar value.
Tested on: 958767-090-R-J1-PDC spheroid growth
Experiment: Anticancer human tumor 958767-090-R-J1-PDC patient-derived head and neck squamous carcinoma cell line growth inhibition [IpAb]
Conditions: spheroids with HUVEC and MSC; for pIC50: curve of first compound; for viability, T/C: stronger effect = lower value
Source text: Combinatorial screen of targeted agents with ipatasertib and abemaciclib in multi-cell type tumor spheroids
A high-throughput screen of multi-cell type tumor spheroids was designed to identify active combinations of targeted small molecules and ipatasertib or abemaciclib. Complex spheroids include a stromal component modeled by human endothelial cells (HUVEC) and fibroblasts modeled by human mesenchymal stem cells (MSCs). The concentration ranges selected for each drug and investigational agent were based upon clinically achievable concentrations if the clinical Cmax of the agent was known.
Compounds. The drugs and investigational agents: ipatasertib (NSC767898), abemaciclib(NSC768073), selumetinib (NSC741078), trametinib (758246), adavosertib (NSC754352), everolimus (NSC733504), sapanisertib (NSC764658), vemurafenib (NSC761431), venetoclax (NSC766270), copanlisib (NSC809693), apelisib (NSC765974), palbociblib (NSC758247), vemurafenib (NSC761431), dabrafenib (NSC764134), ravoxertinib (NSC781343), BMS-387032 (NSC767048), sotorasib (NSC818433), talazoparib (NSC767125) and afursertib (NSC778305), were obtained from the National Cancer Institute (NCI) Developmental Therapeutics Program Chemical Repository. The FDA-approved anticancer drug set is available from the NCI Developmental Therapeutics Program. […] The stock solutions were prepared in dimethyl sulfoxide (DMSO, Sigma-Aldrich, St. Louis, MO, cat. D2650) at 800-fold the tested concentration and stored at -70 degrees C prior to their use. All drugs and investigational agents were tested over a range starting from a high concentration at or near the clinical Cmax and decreasing in half-log increments. If the clinical Cmax for an agent had not been determined, the highest concentration tested was 10 microM.
NCI60 Cell Culture. NCI60 cell lines were obtained from the NCI Developmental Therapeutics Program Tumor Repository. For each lot of cells, the Repository performed Applied Biosystems AmpFLSTR Identifiler testing with PCR amplification to confirm consistency with the published Identifier STR profile for each cell line. Cells were kept in continuous culture for no more than 20 passages. The optimal seeding densities for each of the cell lines at each time point assessed were determined prior to performing the concentration response studies. Briefly, the NCI60 human tumor lines were grown as monolayers in RPMI 1640 medium supplemented with 10% FBS and 2 mmol/L L-glutamine.
An additional 9 lines were from the NCI60 cell line panel including MDA-MB-231 breast carcinoma, MDA-MB-468 breast carcinoma, MCF7 breast carcinoma, Hs578T breast carcinoma, MALME-3M melanoma, SK-MEL-2 melanoma, SK-OV-3 ovarian carcinoma, DU-145 prostate carcinoma, PC-3 prostate carcinoma, all cell lines along with major genetic alterations are listed on Table 2. Pooled donor human umbilical vein endothelial cells (HUVEC, Lonza, cat. CC-2519) and human mesenchymal stem cells (hMSC, Lonza, cat. PT-2501) were purchased from Lonza (Walkersville, MD).
PDMR cell lines were grown in complete medium (DC medium): Dulbecco's modified Eagle's medium (DMEM)/F12 supplemented with 5% fetal bovine serum (FBS), 2 mM L-glutamine, 100 U/mL penicillin and 100 µg/ml streptomycin, 0.4 µg/ml hydrocortisone, 10 ng/ml epidermal growth factor (EGF) recombinant human protein, 24 µg/mL adenine, and 0.1 mg/mL primocin. During culture from frozen stock vials, PDMR cells were cultured in the same medium containing 10 µM Y-27632 (see Table 3). The PDCs were cultured in complete DMEM/F12 media without 10 microM Y-27632 dihydrochloride for at least two passages prior to the screen. The pooled donor HUVEC and hMSC were cultured in endothelial cell growth medium 2 (PromoCell, Heidelberg, Germany, cat. C-22011) and mesenchymal stem cell growth medium 2 (PromoCell, cat. C-28009), respectively. For all experiments, HUVEC and hMSC were used at passages </=5.
[…]
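Further: spheroids exposed to agents for 7 days.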
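Wherever viability, T/C is given: 100% = DMSO vehicle control wells.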

SMILES: CC(=O)c1c(C)c2cnc(Nc3ccc(N4CCNCC4)cn3)nc2n(C2CCCC2)c1=O + CC(C)NCC(C(=O)N1CCN(c2ncnc3c2C(C)CC3O)CC1)c1ccc(Cl)cc1
- pIC50 (second compound 0.1 µM): < 6.52
- pIC50 (second compound 0.316 µM): 6.52
- pIC50 (second compound 1 µM): > 9.02
- pIC50 (second compound 3.16 µM): > 9.02
- pIC50 (second compound 10 µM): > 9.02
- viability, T/C (second compound 0.1 µM, first compound 0.000949 µM): 83.8%
- viability, T/C (second compound 0.1 µM, first compound 0.003 µM): 70.5%
- viability, T/C (second compound 0.1 µM, first compound 0.00949 µM): 68.7%
- viability, T/C (second compound 0.1 µM, first compound 0.03 µM): 67.7%
- viability, T/C (second compound 0.1 µM, first compound 0.0949 µM): 53.4%
- viability, T/C (second compound 0.1 µM, first compound 0.3 µM): 64.8%
- viability, T/C (second compound 0.316 µM, first compound 0.000949 µM): 56.4%
- viability, T/C (second compound 0.316 µM, first compound 0.003 µM): 65.3%
- viability, T/C (second compound 0.316 µM, first compound 0.00949 µM): 54.2%
- viability, T/C (second compound 0.316 µM, first compound 0.03 µM): 46.1%
- viability, T/C (second compound 0.316 µM, first compound 0.0949 µM): 57.3%
- viability, T/C (second compound 0.316 µM, first compound 0.3 µM): 52.5%
- viability, T/C (second compound 1 µM, first compound 0.000949 µM): 48.1%
- viability, T/C (second compound 1 µM, first compound 0.003 µM): 46.2%
- viability, T/C (second compound 1 µM, first compound 0.00949 µM): 49.8%
- viability, T/C (second compound 1 µM, first compound 0.03 µM): 41.8%
- viability, T/C (second compound 1 µM, first compound 0.0949 µM): 47.2%
- viability, T/C (second compound 1 µM, first compound 0.3 µM): 40.2%
- viability, T/C (second compound 3.16 µM, first compound 0.000949 µM): 43.1%
- viability, T/C (second compound 3.16 µM, first compound 0.003 µM): 43.6%
- viability, T/C (second compound 3.16 µM, first compound 0.00949 µM): 39.1%
- viability, T/C (second compound 3.16 µM, first compound 0.03 µM): 41.5%
- viability, T/C (second compound 3.16 µM, first compound 0.0949 µM): 37.7%
- viability, T/C (second compound 3.16 µM, first compound 0.3 µM): 31.2%
- viability, T/C (second compound 10 µM, first compound 0.000949 µM): 41.4%
- viability, T/C (second compound 10 µM, first compound 0.003 µM): 41.7%
- viability, T/C (second compound 10 µM, first compound 0.00949 µM): 42.9%
- viability, T/C (second compound 10 µM, first compound 0.03 µM): 35.5%
- viability, T/C (second compound 10 µM, first compound 0.0949 µM): 30.7%
- viability, T/C (second compound 10 µM, first compound 0.3 µM): 25%

SMILES: C=CC(=O)N1CCN(c2nc(=O)n(-c3c(C)ccnc3C(C)C)c3nc(-c4c(O)cccc4F)c(F)cc23)C(C)C1 (stereo not given) + CCN1CCN(Cc2ccc(Nc3ncc(F)c(-c4cc(F)c5nc(C)n(C(C)C)c5c4)n3)nc2)CC1
- pIC50 (second compound 0.01 µM): 5.08
- pIC50 (second compound 0.0316 µM): 5.11
- pIC50 (second compound 0.1 µM): 5.10
- pIC50 (second compound 0.316 µM): 5.09
- pIC50 (second compound 1 µM): 5.01
- viability, T/C (second compound 0.01 µM, first compound 0.0316 µM): 96.3%
- viability, T/C (second compound 0.01 µM, first compound 0.1 µM): 84.9%
- viability, T/C (second compound 0.01 µM, first compound 0.316 µM): 94.4%
- viability, T/C (second compound 0.01 µM, first compound 1 µM): 94.8%
- viability, T/C (second compound 0.01 µM, first compound 3.16 µM): 81.9%
- viability, T/C (second compound 0.01 µM, first compound 10 µM): 44.3%
- viability, T/C (second compound 0.0316 µM, first compound 0.0316 µM): 82.4%
- viability, T/C (second compound 0.0316 µM, first compound 0.1 µM): 84.8%
- viability, T/C (second compound 0.0316 µM, first compound 0.316 µM): 90.7%
- viability, T/C (second compound 0.0316 µM, first compound 1 µM): 92.3%
- viability, T/C (second compound 0.0316 µM, first compound 3.16 µM): 83.5%
- viability, T/C (second compound 0.0316 µM, first compound 10 µM): 40%
- viability, T/C (second compound 0.1 µM, first compound 0.0316 µM): 72.2%
- viability, T/C (second compound 0.1 µM, first compound 0.1 µM): 70.2%
- viability, T/C (second compound 0.1 µM, first compound 0.316 µM): 75.1%
- viability, T/C (second compound 0.1 µM, first compound 1 µM): 94.2%
- viability, T/C (second compound 0.1 µM, first compound 3.16 µM): 81.4%
- viability, T/C (second compound 0.1 µM, first compound 10 µM): 43.3%
- viability, T/C (second compound 0.316 µM, first compound 0.0316 µM): 77%
- viability, T/C (second compound 0.316 µM, first compound 0.1 µM): 55.1%
- viability, T/C (second compound 0.316 µM, first compound 0.316 µM): 72.5%
- viability, T/C (second compound 0.316 µM, first compound 1 µM): 94.1%
- viability, T/C (second compound 0.316 µM, first compound 3.16 µM): 75.9%
- viability, T/C (second compound 0.316 µM, first compound 10 µM): 44.9%
- viability, T/C (second compound 1 µM, first compound 0.0316 µM): 89.7%
- viability, T/C (second compound 1 µM, first compound 0.1 µM): 82.4%
- viability, T/C (second compound 1 µM, first compound 0.316 µM): 94.6%
- viability, T/C (second compound 1 µM, first compound 1 µM): 96.1%
- viability, T/C (second compound 1 µM, first compound 3.16 µM): 87.7%
- viability, T/C (second compound 1 µM, first compound 10 µM): 49.5%
